These results are taken from BindingDB's records for doi:10.1016/j.bmcl.2019.126678 (Vanderbilt University, 2019).

For test [1], the target named is Muscarinic acetylcholine receptor M4 (human) (UniProt P08173). Description: Positive allosteric modulation of human M4 receptor expressed in CHO cells co-expressing Gqi5 assessed as increase in acetylcholine-induced calcium mobilization incubated with EC20 ACh for 140 secs and subsequent EC80 Ach addition further incubated for 120 secs by Fluo-4-AM dye based fluorescence assay. (Calcium flux is commonly read through the fluorescence of an indicator in the cells.)
Chain of Muscarinic acetylcholine receptor M4 (human) (P08173 whole entry, looked up): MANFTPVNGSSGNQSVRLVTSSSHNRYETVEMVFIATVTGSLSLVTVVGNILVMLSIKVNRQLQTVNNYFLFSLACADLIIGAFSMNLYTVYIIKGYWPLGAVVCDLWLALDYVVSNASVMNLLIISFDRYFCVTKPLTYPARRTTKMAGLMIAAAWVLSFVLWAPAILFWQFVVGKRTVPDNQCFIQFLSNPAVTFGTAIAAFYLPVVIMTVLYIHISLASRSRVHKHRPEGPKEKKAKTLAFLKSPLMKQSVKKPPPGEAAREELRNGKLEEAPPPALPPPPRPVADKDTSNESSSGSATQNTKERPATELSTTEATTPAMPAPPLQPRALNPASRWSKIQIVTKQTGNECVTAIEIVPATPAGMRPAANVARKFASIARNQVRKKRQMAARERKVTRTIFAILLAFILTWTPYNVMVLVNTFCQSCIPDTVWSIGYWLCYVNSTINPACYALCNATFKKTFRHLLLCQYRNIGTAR

Test [2] has as its target Muscarinic acetylcholine receptor M4 (rat). Description: Positive allosteric modulation of rat M4 receptor expressed in CHO cells co-expressing Gqi5 assessed as increase in acetylcholine-induced calcium mobilization incubated with EC20 ACh for 140 secs and subsequent EC80 Ach addition further incubated for 120 secs by Fluo-4-AM dye based fluorescence assay.

The term EC50 denotes the midpoint of the concentration-response curve. `Cc1nnc2ccc(C(=O)NC3CN(c4cccc(C(F)(F)F)n4)C3)cc2c1C`: in test [1], the EC50 worked out at 3360 nM.

As to `Cc1nnc2ccc(C(=O)NC3CN(c4cccc(F)n4)C3)cc2c1C`, in test [1], the EC50 came to 668 nM.

As for `Cc1nnc2ccc(C(=O)NC3CN(c4ncc(C#N)cc4Cl)C3)cc2c1C`, the figures for the EC50 in test [2] and in test [1] were 138 nM and 304 nM, respectively.

As for `Cc1nnc2ccc(C(=O)NC3CN(c4ncc(C(F)(F)F)cn4)C3)cc2c1C`, the EC50 in test [1] was over 10000 nM.

Take `Cc1nnc2ccc(C(=O)NC3CN(c4ncc(OC(C)C)cn4)C3)cc2c1C`: the EC50 in test [1] came to 3200 nM.

`Cc1nnc2ccc(C(=O)NC3CN(c4ccc(C#N)cn4)C3)cc2c1C`: the half-maximal effective concentration (EC50) in test [1] was found to be 1030 nM.

For `Cc1nnc2ccc(C(=O)NC3CN(c4ncc(C5CC5)cc4Cl)C3)cc2c1C`, the EC50 in test [1] was determined as 1390 nM.

In the case of `Cc1nnc2ccc(C(=O)NC3CN(c4ncc(C(F)(F)F)cc4Cl)C3)cc2c1C`, the EC50 in test [1] came out at 2630 nM.

Turning to `Cc1nnc2ccc(C(=O)NC3CN(c4cccc(Cl)n4)C3)cc2c1C`, in test [1], the EC50 was 1320 nM.

Turning to `Cc1nnc2ccc(C(=O)NC3CN(c4ncccc4F)C3)cc2c1C`, the EC50 in test [1] stood at 1220 nM.

Regarding `Cc1nnc2ccc(C(=O)NC3CN(c4ncc(F)cc4Cl)C3)cc2c1C`, the EC50 in test [2] turned out to be 174 nM; in test [1] it was 464 nM.

In the case of `COc1cc(N2CC(NC(=O)c3ccc4nnc(C)c(C)c4c3)C2)c(Cl)cn1`, the half-maximal effective concentration (EC50) is 356 nM in test [2] and 373 nM in test [1].

As to `Cc1nnc2ccc(C(=O)NC3CN(c4ccc(Cl)cn4)C3)cc2c1C`, in test [1], the EC50 amounted to 1270 nM.

`Cc1nnc2ccc(C(=O)NC3CN(c4ncccc4Cl)C3)cc2c1C`: in test [1], the EC50 is 952 nM.

Take `Cc1nnc2ccc(C(=O)NC3CN(c4cc(Cl)ncc4Cl)C3)cc2c1C`: the values for the concentration giving a half-maximal response (EC50) in test [2] and in test [1] were 230 nM and 116 nM, respectively.

For the compound `Cc1nnc2ccc(C(=O)NC3CN(c4ccc(F)c(F)c4)C3)cc2c1C`, in test [1], the EC50 stood at 737 nM.

`Cc1nnc2ccc(C(=O)NC3CN(c4ncc(Cl)cc4F)C3)cc2c1C`: the EC50 in test [2] worked out at 82 nM; in test [1], 648 nM.

On to `Cc1nnc2ccc(C(=O)NC3CN(c4cnc(C5CC5)cn4)C3)cc2c1C`, for which the EC50 in test [1] came to 2510 nM.

In the case of `Cc1nnc2ccc(C(=O)NC3CN(c4ccc(OC(F)F)nc4)C3)cc2c1C`, the EC50 in test [1] stood at 1460 nM.
